Data set [1] deals with T1, Amine oxidase [flavin-containing] B (Homo sapiens, UniProt P27338).
T1 sequence (P27338 whole entry): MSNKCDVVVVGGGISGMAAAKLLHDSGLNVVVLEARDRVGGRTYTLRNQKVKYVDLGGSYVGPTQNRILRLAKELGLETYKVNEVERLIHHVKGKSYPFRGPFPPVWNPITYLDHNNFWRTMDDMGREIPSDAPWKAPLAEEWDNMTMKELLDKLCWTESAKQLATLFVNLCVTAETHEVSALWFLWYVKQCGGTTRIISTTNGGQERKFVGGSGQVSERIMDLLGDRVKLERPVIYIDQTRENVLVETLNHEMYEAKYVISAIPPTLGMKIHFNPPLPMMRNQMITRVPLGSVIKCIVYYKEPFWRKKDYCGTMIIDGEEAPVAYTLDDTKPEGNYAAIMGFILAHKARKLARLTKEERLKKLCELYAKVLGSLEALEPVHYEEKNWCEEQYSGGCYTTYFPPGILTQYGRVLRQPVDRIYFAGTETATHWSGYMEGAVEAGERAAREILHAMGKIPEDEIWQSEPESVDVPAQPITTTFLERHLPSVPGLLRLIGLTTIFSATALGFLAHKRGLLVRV
As to the kind of experiment: (§1) Inhibition of MAO-B (unknown origin) at 10 uM using beetle luciferin derived luminogenic substrate preincubated for 15 mins followed by substrate addition measured after 60 mins by MAO-Glo assay relative to control. The conditions noted are these: 1 h, 10 µM.

Data set [2] has as its target T2, MAO-A (Homo sapiens, UniProt P21397).
T2 sequence (P21397 whole entry): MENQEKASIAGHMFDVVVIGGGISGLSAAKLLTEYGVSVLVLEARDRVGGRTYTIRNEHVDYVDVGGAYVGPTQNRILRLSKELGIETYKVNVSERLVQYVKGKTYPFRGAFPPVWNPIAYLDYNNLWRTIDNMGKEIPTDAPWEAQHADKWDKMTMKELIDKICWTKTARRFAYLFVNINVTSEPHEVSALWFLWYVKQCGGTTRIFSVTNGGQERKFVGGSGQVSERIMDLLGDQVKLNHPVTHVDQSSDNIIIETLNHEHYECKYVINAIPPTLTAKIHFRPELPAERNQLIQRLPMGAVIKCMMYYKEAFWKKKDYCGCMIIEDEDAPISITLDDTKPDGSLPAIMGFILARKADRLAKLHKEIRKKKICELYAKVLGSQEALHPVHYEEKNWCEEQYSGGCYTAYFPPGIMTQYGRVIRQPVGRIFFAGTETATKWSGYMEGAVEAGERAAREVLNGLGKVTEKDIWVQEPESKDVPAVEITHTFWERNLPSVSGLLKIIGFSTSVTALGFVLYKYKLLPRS
As to the kind of experiment: in vitro. The conditions noted are these: MAO-A enzyme (unknown origin), probe beetle luciferin derived luminogenic substrate.

Data set [3] concerns the target T2, MAO-A. Kind of data set: Inhibition of MAO-A (unknown origin) at 1 uM using beetle luciferin derived luminogenic substrate preincubated for 15 mins followed by substrate addition measured after 60 mins by MAO-Glo assay relative to control. The conditions noted are these: MAO-A enzyme (unknown origin), probe beetle luciferin derived luminogenic substrate.
The target in data set [4] is T3, Lysine-specific histone demethylase 1A (Homo sapiens, UniProt O60341). The conditions noted are these: 100 uM.
Data set [5] concerns the target T1, Amine oxidase [flavin-containing] B. Kind of data set: Inhibition of MAO-B (unknown origin) using beetle luciferin derived luminogenic substrate preincubated for 15 mins followed by substrate addition measured after 60 mins by MAO-Glo assay.
Data set [6] concerns the target T4, Amine oxidase [flavin-containing] A (Homo sapiens, UniProt P21397).
T4 sequence (P21397 whole entry): T2 sequence (P21397 whole entry)

In data set [7] the target is T5, MAO-B (Homo sapiens, UniProt P27338).
T5 sequence (P27338 whole entry): T1 sequence (P27338 whole entry)
Kind of data set: in vitro. Particulars: MAO-B enzyme (unknown origin), probe beetle luciferin derived luminogenic substrate.

In data set [8] the target is T5, MAO-B. The data set is described as §1. The conditions noted are these: MAO-B enzyme (unknown origin), probe beetle luciferin derived luminogenic substrate.
The target of data set [9] is T3, Lysine-specific histone demethylase 1A. Particulars: 10 uM.
Another data set has as its system THP-1. Kind of data set: Inhibition of colony formation in human THP1 cells at 0.5 to 50 uM after […] by light microscopic method. The format is functional, cell-based.
Data set [10] addresses T3, Lysine-specific histone demethylase 1A.

Active and inactive are the calls of the source. The rule behind the calls is not given here.

Turning to `COc1ncccc1CN[C@H]1C[C@@H]1c1ccccc1`, the “inhibition (INH)” value in data set [1] is recorded as “Not Active”.

With `COc1cccc(CN[C@H]2C[C@@H]2c2ccccc2)c1` (relative stereo), in [1], the “inhibition (INH)” value is on record as “Not Active”. On MAO-A [2], the inhibition at 1 h, 10 µM came to 79%.

`Cc1ccc(CN[C@H]2C[C@@H]2c2ccccc2)cc1Cl` (relative stereo) registered an inhibition at 1 h, 1 µM at MAO-A [3] of 69%.

Consider `Fc1ccc(CN[C@H]2C[C@@H]2c2ccccc2)cc1` (relative stereo), for which the inhibition at 1 h, 1 µM against MAO-A [3] worked out at 27%.

`C[C@@H]1[C@H](NCc2ccc(Cl)cc2Cl)[C@H]1c1ccccc1` (relative stereo): in data set [4], the inhibition result was “inactive”. In addition, the figures for the IC50 in data set [5] and in data set [6] were 56.2 µM and 0.78 µM, respectively.

With `O=[N+]([O-])c1ccccc1CN[C@H]1C[C@@H]1c1ccccc1` (relative stereo), the values for the inhibition at 1 h, 1 µM against MAO-A [3] and against MAO-B [7] were 18% and 15%, respectively.

On to `Clc1ccccc1CN[C@H]1C[C@@H]1c1ccccc1` (relative stereo), for which the figures for the inhibition at 1 h, 10 µM against MAO-B [8] and against MAO-A [2] were 21% and 62%, respectively.

Consider `Fc1cc(Br)ccc1CN[C@H]1C[C@@H]1c1ccccc1` (relative stereo), for which the inhibition at 1 h, 1 µM against MAO-A [3] came to 27%.

Regarding `Brc1ccc(COc2ccc(CN[C@H]3C[C@@H]3c3ccccc3)cc2)cc1` (relative stereo), the inhibition at 1 h, 1 µM turned out to be 100% at MAO-A [3] and 44% against MAO-B [7].

Regarding `C[C@@H]1[C@@H](N)[C@H]1c1ccccc1.Cl` (relative stereo), the inhibition result in data set [4] is “inactive”. Besides, the “inhibition (INH)” value in [1] is “Not Active”.

`CC(=O)Nc1ccc(CN[C@H]2C[C@@H]2c2ccccc2)cc1` (relative stereo): the inhibition at 1 h, 10 µM on MAO-B [8] amounted to 17%; at MAO-A [2], 48%.

Consider `c1ccc(COc2ccc(CN[C@H]3C[C@@H]3c3ccccc3)cc2)cc1` (relative stereo), for which the values for the inhibition at 1 h, 1 µM at MAO-A [3] and against MAO-B [7] were 93% and 52%, respectively.

With `O=[N+]([O-])c1ccc(N[C@H]2C[C@@H]2c2ccccc2)s1` (relative stereo), the inhibition at 1 h, 1 µM against MAO-A [3] turned out to be 94%; at MAO-B [7] it was 79%.

For the compound `Clc1cc(Cl)cc(CN[C@H]2C[C@@H]2c2ccccc2)c1` (relative stereo), the figures for the inhibition at 1 h, 1 µM against MAO-A [3] and against MAO-B [7] were 30% and 17%, respectively.

With `Ic1ccccc1CN[C@H]1C[C@@H]1c1ccccc1` (relative stereo), the figures for the inhibition at 1 h, 1 µM against MAO-A [3] and on MAO-B [7] were 12% and 16%, respectively.

`Brc1cccc(CN[C@H]2C[C@@H]2c2ccccc2)c1` (relative stereo) displayed an inhibition at 1 h, 1 µM on MAO-A [3] of 38%.

For `Brc1ccc(COc2cccc(CN[C@H]3C[C@@H]3c3ccccc3)c2)cc1` (relative stereo), the inhibition at 1 h, 1 µM is 100% against MAO-A [3] and 32% against MAO-B [7].

For `c1ccc(-c2ccc(CN[C@H]3C[C@@H]3c3ccccc3)cc2)cc1` (relative stereo), the inhibition at 1 h, 1 µM against MAO-A [3] came out at 93%; at MAO-B [7], 82%.

For `CC(C)(C)c1ccc(CN[C@H]2C[C@@H]2c2ccccc2)cc1` (relative stereo), the inhibition at 1 h, 1 µM against MAO-A [3] worked out at 22%; against MAO-B [7] it was 27%.

`COc1ccccc1CN[C@H]1C[C@@H]1c1ccccc1` (relative stereo) registered an inhibition at 1 h, 10 µM at MAO-B [8] of 36%.

With `O=[N+]([O-])c1cc(CN[C@H]2C[C@@H]2c2ccccc2)ccc1Cl` (relative stereo), the inhibition at 1 h, 10 µM is 13% against MAO-B [8] and 100% on MAO-A [2].

Take `COc1ccc(CN[C@H]2C[C@@H]2c2ccccc2)cc1OC` (relative stereo): the “inhibition (INH)” value in data set [1] is recorded as “Not Active”. At MAO-A [2], this compound had an inhibition at 1 h, 10 µM of 69%.

Consider `Fc1ccc(CN[C@H]2C[C@@H]2c2ccccc2)cc1F` (relative stereo), for which the inhibition at 1 h, 1 µM on MAO-A [3] was 43%.

Take `Fc1ccccc1CN[C@H]1C[C@@H]1c1ccccc1` (relative stereo): the inhibition at 1 h, 10 µM on MAO-B [8] was 16%; on MAO-A [2] it was 20%.

As to `NC(=O)c1cccc(CN[C@H]2C[C@@H]2c2ccccc2)c1` (relative stereo), the half-inhibitory concentration (IC50) in data set [5] is 95.7 µM; in data set [6] it was 27.9 µM.

`c1ccc(COc2cccc(CN[C@H]3C[C@@H]3c3ccccc3)c2)cc1` (relative stereo): the inhibition at 1 h, 1 µM is 60% on MAO-A [3] and 23% on MAO-B [7].

Consider `CCc1ccc(CN[C@H]2C[C@@H]2c2ccccc2)cc1` (relative stereo), for which the inhibition at 1 h, 1 µM amounted to 33% at MAO-A [3] and 12% against MAO-B [7].

Regarding `COc1ccc(CN[C@H]2C[C@@H]2c2ccccc2)cc1` (relative stereo), the inhibition at 1 h, 1 µM against MAO-A [3] stood at 30%.

For `Brc1ccc(CN[C@H]2C[C@@H]2c2ccccc2)cc1` (relative stereo), the inhibition at 1 h, 10 µM against MAO-B [8] was found to be 27%; against MAO-A [2], 43%.

Turning to `Clc1ccc(CN[C@H]2C[C@@H]2c2ccccc2)c(Cl)c1` (relative stereo), the inhibition at 1 h, 10 µM turned out to be 11% at MAO-B [8] and 73% at MAO-A [2].

`C[C@@H]1[C@H](N)[C@H]1c1ccccc1.Cl` (relative stereo): the inhibition result in [4] is “inactive”. In addition, the “inhibition (INH)” value in data set [1] was “Not Active”.

Regarding `C[C@@H]1[C@H](NCc2ccc(Cl)cc2)[C@H]1c1ccccc1` (relative stereo), the inhibition entry (in [9]; in the data set on THP-1) was “inactive” in each case. The results for the concentration for half-maximal inhibition (IC50) in data set [5] and in data set [6] were 10.5 µM and 0.31 µM, respectively. Also, the Tm in data set [10] was 47.9 °C.

Take `c1ccc([C@H]2C[C@@H]2NCc2cccnc2)cc1` (relative stereo): in data set [1], the “inhibition (INH)” value is recorded as “Not Active”.

With `c1ccc(-c2cccc(CN[C@H]3C[C@@H]3c3ccccc3)c2)cc1` (relative stereo), the “inhibition (INH)” value in [1] is reported as “Not Active”. In addition, in data set [6], it took 0.161 µM to reach half-maximal inhibition (IC50).

In the case of `CN(C)c1ccc(CN[C@H]2C[C@@H]2c2ccccc2)cc1` (relative stereo), at MAO-A [3], the inhibition at 1 h, 1 µM stood at 30%.

With `Cn1c(CN[C@H]2C[C@@H]2c2ccccc2)cc2ccccc21` (relative stereo), the inhibition at 1 h, 10 µM on MAO-B [8] was 14%; against MAO-A [2], 54%.

With `O=[N+]([O-])c1ccc(N[C@H]2C[C@@H]2c2ccccc2)o1` (relative stereo), the inhibition at 1 h, 1 µM against MAO-A [3] worked out at 27%.

Take `Fc1cccc(CN[C@H]2C[C@@H]2c2ccccc2)c1` (relative stereo): the inhibition at 1 h, 10 µM against MAO-B [8] was 20%; on MAO-A [2], 69%.

On to `Brc1ccccc1CN[C@H]1C[C@@H]1c1ccccc1` (relative stereo), for which the inhibition at 1 h, 10 µM is 24% against MAO-B [8] and 47% on MAO-A [2].

In the case of `C[C@H]1[C@@H](N)[C@H]1c1ccccc1.Cl` (relative stereo), the inhibition entry in [4] is “inactive”. For the same compound, the “inhibition (INH)” value in data set [1] was “Not Active”.

In the case of `C[C@@H]1[C@H](NCc2cccc([N+](=O)[O-])c2)[C@H]1c1ccccc1` (relative stereo), the inhibition entry (in data set [9]; in the data set with THP-1) was “inactive” throughout. Further, the IC50 stood at 2.2 µM in [5] and 0.237 µM in [6]. Besides, in data set [10], the Tm was 45.6 °C.

For `c1ccc(CN[C@H]2C[C@@H]2c2ccccc2)cc1` (relative stereo), the inhibition at 1 h, 10 µM against MAO-B [8] was found to be 33%. This compound also came in with an IC50 in data set [6] of 5.7 µM.

The term inhibition denotes the drop in the measured response relative to a control, in per cent. As a reminder, the IC50 is the concentration that gives 50% inhibition.

The values are drawn from ChEMBL document CHEMBL4251603, “Structure-activity studies on N-Substituted tranylcypromine derivatives lead to selective inhibitors of lysine specific demethylase 1 (LSD1) and potent inducers of leukemic cell differentiation” (Eur J Med Chem, 2018).
